# In article PMC8803738, “Impact of the mouse model and molar amount of injected ligand on the tissue distribution profile of PSMA radioligands” (European Journal of Nuclear Medicine and Molecular Imaging, 2021):
# Test system: PC-3 PIP/flu or LNCaP tumor-bearing mice
# Test: Biodistribution, comparison or ranges over both PC-3 PIP and LNCaP tumor mouse models
# Type: in vivo
# Protocol: Male BALB/c nude mice were subcutaneously inoculated on the right shoulder with LNCaP tumor cells (5 × 10^6 cells in PBS mixed with Matrigel (20 mg/mL, BD Biosciences) at a ratio of 3 to 1 (v/v) to a total volume of 200 μL per mouse). Biodistribution and SPECT/CT imaging studies with both tumor xenograft models were performed when the tumors reached a volume of 100–300 mm^3.
# [^177Lu]Lu-Ibu-DAB-PSMA (5 MBq, 100 µL) and [^177Lu]Lu-PSMA-617 (5 MBq, 100 µL) were diluted in saline containing 0.05% bovine serum albumin (BSA) to prevent adherence of the radioligands to the syringe. The radioligands were intravenously injected at a ligand amount of 0.05 nmol or 1.0 nmol per mouse. The number of mice per setting was commonly n = 3 and, in case of inconclusive results, additional mice up to a total of n = 6 were included. The mice were sacrificed at 4 h, 24 h, or 48 h post injection (p.i.) and selected tissues and organs were collected, weighed, and counted in a γ-counter (Supplementary Material). The data sets were analyzed for significance using a one-way ANOVA with Sidak’s multiple comparison post-test using the GraphPad Prism software (version 8). A p value of < 0.05 was considered statistically significant. Tumor-to-kidney and tumor-to-blood ratios were calculated for all investigated timepoints after injection of each radioligand.
smiles,measurement,setting,value
"CC(C)Cc1ccc(C(C)C(=O)NC(CCN)C(=O)NCCCCC(NC(=O)CN2CCN(CC(=O)O)CCN(CC(=O)O)CCN(CC(=O)O)CC2)C(=O)NCC2CCC(C(=O)NC(Cc3ccc4ccccc4c3)C(=O)NCCCCC(NC(=O)NC(CCC(=O)O)C(=O)O)C(=O)O)CC2)cc1 (stereo not drawn) [[^177Lu]Lu-Ibu-DAB-PSMA, metal not drawn]",Tumor accumulation in PC-3 PIP vs LNCaP tumor xenografts,0.05 nmol,approximately fourfold
same,Tumor uptake in PC-3 PIP vs LNCaP tumor xenografts,1.0 nmol,6 fold
same,"Kidney retention, low vs high amount of injected ligand","4 h p.i., 0.05 nmol vs 1.0 nmol",about fourfold
same,Kidney retention,"4 h p.i., high amount of injected ligand (1.0 nmol), range over both mouse models (PC-3 PIP data reproduced from earlier papers)",16–19 % IA/g
same,Kidney retention,"4 h p.i., low amount of injected ligand (0.05 nmol), range over both mouse models",58–69 % IA/g
same,Renal retention of activity,"24 h p.i., irrespective of the injected ligand amount, range over both mouse models",5.5–6.8 % IA/g
